In ChEMBL document CHEMBL6109125, “A New Protractor Potentiates Glucagon-Like Peptide 1 with Slow-Release Depot and Long-Term Action” (J Med Chem, 2025):

How the values were obtained:
Format in all cases: functional, cell-based
Details in all cases: read-out: EC50
[1] = target: T1, Glucagon-like peptide 1 receptor (Homo sapiens, UniProt P43220); experiment: Agonist activity at GLP-1R (unknown origin) expressed in HEK293 cells co-expressing CRE-Luc assessed as increase in intracellular cAMP accumulation by luciferase based assay
[2] = target: T1, Glucagon-like peptide 1 receptor; experiment: Agonist activity at GLP-1R (unknown origin) expressed in HEK293 cells co-expressing CRE-Luc assessed as increase in intracellular cAMP accumulation in presence of 10% FBS by luciferase based assay
[3] = target: T1, Glucagon-like peptide 1 receptor; experiment: Agonist activity at GLP-1R (unknown origin) expressed in HEK293 cells co-expressing CRE-Luc assessed as increase in intracellular cAMP accumulation in presence of 2% HSA by luciferase based assay

T1 sequence (P43220 whole entry): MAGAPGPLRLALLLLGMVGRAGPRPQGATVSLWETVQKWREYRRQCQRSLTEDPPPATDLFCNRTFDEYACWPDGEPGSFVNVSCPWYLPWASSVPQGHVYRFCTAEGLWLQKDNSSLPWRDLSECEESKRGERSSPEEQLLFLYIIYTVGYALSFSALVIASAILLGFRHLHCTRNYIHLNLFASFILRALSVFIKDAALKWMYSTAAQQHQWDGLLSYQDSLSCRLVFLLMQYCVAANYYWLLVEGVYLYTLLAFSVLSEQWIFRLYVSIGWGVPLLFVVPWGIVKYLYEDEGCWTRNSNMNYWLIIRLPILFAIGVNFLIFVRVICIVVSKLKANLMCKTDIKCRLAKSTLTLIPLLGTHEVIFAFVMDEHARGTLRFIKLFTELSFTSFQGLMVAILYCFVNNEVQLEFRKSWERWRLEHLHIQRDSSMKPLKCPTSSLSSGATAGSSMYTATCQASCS

Compound | EC50 [1] | EC50 [2] | EC50 [3]
CCOc1ccc(Nc2ccc(/C(=C3C=C/C(=[N+](\CC)Cc4cccc(S(=O)(=O)[O-])c4)C=C/3C)c3ccc(N(CC)Cc4cccc(S(=O)(=O)NCCCCCC(=O)NCCOCCOCC(=O)NCCOCCOCC(=O)NCCCC[C@H](NC(=O)[C@H](C)NC(=O)[C@H](C)NC(=O)[C@H](CCC(N)=O)NC(=O)CNC(=O)[C@H](CCC(=O)O)NC(=O)[C@H](CC(C)C)NC(=O)[C@H](Cc5ccc(O)cc5)NC(=O)[C@H](CO)NC(=O)[C@H](CO)NC(=O)[C@@H](NC(=O)[C@H](CC(=O)O)NC(=O)[C@H](CO)NC(=O)[C@@H](NC(=O)[C@H](Cc5ccccc5)NC(=O)[C@@H](NC(=O)CNC(=O)[C@H](CCC(=O)O)NC(=O)C(C)(C)NC(=O)[C@@H](N)Cc5c[nH]cn5)[C@@H](C)O)[C@@H](C)O)C(C)C)C(=O)N[C@@H](CCC(=O)O)C(=O)N[C@@H](Cc5ccccc5)C(=O)N[C@H](C(=O)N[C@@H](C)C(=O)N[C@@H](Cc5c[nH]c6ccccc56)C(=O)N[C@@H](CC(C)C)C(=O)N[C@H](C(=O)N[C@@H](CCCNC(=N)N)C(=O)NCC(=O)N[C@@H](CCCNC(=N)N)C(=O)NCC(=O)O)C(C)C)[C@@H](C)CC)c4)cc3C)cc2)cc1 | 0.79 pM | 2.93 pM | 3.94 pM
CCOc1ccc(Nc2ccc(/C(=C3C=C/C(=[N+](\CC)Cc4cccc(S(=O)(=O)[O-])c4)C=C/3C)c3ccc(N(CC)Cc4cccc(S(=O)(=O)NCCCCCC(=O)N[C@@H](CS(=O)(=O)O)C(=O)NCCOCCOCC(=O)NCCCC[C@H](NC(=O)[C@H](C)NC(=O)[C@H](C)NC(=O)[C@H](CCC(N)=O)NC(=O)CNC(=O)[C@H](CCC(=O)O)NC(=O)[C@H](CC(C)C)NC(=O)[C@H](Cc5ccc(O)cc5)NC(=O)[C@H](CO)NC(=O)[C@H](CO)NC(=O)[C@@H](NC(=O)[C@H](CC(=O)O)NC(=O)[C@H](CO)NC(=O)[C@@H](NC(=O)[C@H](Cc5ccccc5)NC(=O)[C@@H](NC(=O)CNC(=O)[C@H](CCC(=O)O)NC(=O)C(C)(C)NC(=O)[C@@H](N)Cc5c[nH]cn5)[C@@H](C)O)[C@@H](C)O)C(C)C)C(=O)N[C@@H](CCC(=O)O)C(=O)N[C@@H](Cc5ccccc5)C(=O)N[C@H](C(=O)N[C@@H](C)C(=O)N[C@@H](Cc5c[nH]c6ccccc56)C(=O)N[C@@H](CC(C)C)C(=O)N[C@H](C(=O)N[C@@H](CCCNC(=N)N)C(=O)NCC(=O)N[C@@H](CCCNC(=N)N)C(=O)NCC(=O)O)C(C)C)[C@@H](C)CC)c4)cc3C)cc2)cc1 | 1.13 pM | 1.16 pM | 4.25 pM
CCOc1ccc(Nc2ccc(/C(=C3C=C/C(=[N+](\CC)Cc4cccc(S(=O)(=O)[O-])c4)C=C/3C)c3ccc(N(CC)Cc4cccc(S(=O)(=O)NCCCCCC(=O)N[C@@H](CS(=O)(=O)O)C(=O)N[C@@H](CS(=O)(=O)O)C(=O)NCCCC[C@H](NC(=O)[C@H](C)NC(=O)[C@H](C)NC(=O)[C@H](CCC(N)=O)NC(=O)CNC(=O)[C@H](CCC(=O)O)NC(=O)[C@H](CC(C)C)NC(=O)[C@H](Cc5ccc(O)cc5)NC(=O)[C@H](CO)NC(=O)[C@H](CO)NC(=O)[C@@H](NC(=O)[C@H](CC(=O)O)NC(=O)[C@H](CO)NC(=O)[C@@H](NC(=O)[C@H](Cc5ccccc5)NC(=O)[C@@H](NC(=O)CNC(=O)[C@H](CCC(=O)O)NC(=O)C(C)(C)NC(=O)[C@@H](N)Cc5c[nH]cn5)[C@@H](C)O)[C@@H](C)O)C(C)C)C(=O)N[C@@H](CCC(=O)O)C(=O)N[C@@H](Cc5ccccc5)C(=O)N[C@H](C(=O)N[C@@H](C)C(=O)N[C@@H](Cc5c[nH]c6ccccc56)C(=O)N[C@@H](CC(C)C)C(=O)N[C@H](C(=O)N[C@@H](CCCNC(=N)N)C(=O)NCC(=O)N[C@@H](CCCNC(=N)N)C(=O)NCC(=O)O)C(C)C)[C@@H](C)CC)c4)cc3C)cc2)cc1 | 1.66 pM | 6.98 pM | 7.08 pM
